{
  "source": "patent US20250228824A1",
  "about": "“COMPOSITIONS AND METHODS FOR INHIBITION OF ITO AS TREATMENT FOR THE J WAVE SYNDROMES AND HYPOTHERMIA” (Lankenau Institute for Medical Research, priority 2021, published 2025)",
  "key": {"[1]": {"system": "coronary-perfused canine right (RV) and left (LV) ventricular wedge models of JWS", "assay": "Coronary-perfused ventricular wedge models of the J wave syndromes (NS5806 alone or with verapamil)", "set-up": "QT interval / T wave amplitude / Epi (APD50) / Epi (APD90): unit not given here", "protocol": "Ten hearts from purpose-bred adult male mongrel dogs (20-22 kg) were acquired from Covance (Denver, PA) and another 10 hearts from purpose-bred adult male Beagle dogs (10-16 kg) were obtained from Envigo (Denver, PA). Dogs were sedated with ketamine (10 mg/kg, IM) and xylazine 2 (mg/kg, IM). Prior to euthanasia (Euthasol solution: pentobarbital sodium and phenytoin sodium; 0.22 ml/kg, IV), and heparin (human pharmaceutical grade, 1,000 U/kg, IV) were administered 3-4 min before isolation of the hearts via a left thoracotomy. Retrograde aortic perfusion of the hearts with ice-cold cardioplegic solution (modified K-H solution; 16 mM KCl) was immediately performed to rinse the coronary vasculature of blood. The hearts were then placed in a sealed container containing ice-cold cardioplegic solution and transported to our institution via private courier in an insulated package filled with icepacks.\nTransmural wedges were dissected from the base of the RV and LV. During the cannulation procedure, preparations were initially arterially perfused with cardioplegic solution. Next, the wedge preparations were placed in a tissue bath and perfused with a modified Krebs-Henseleit solution (K—H) bubbled with 95% O2/5% CO2 warmed to 37° C. The composition of K—H was (in mM): 118 NaCl, 4 KCl, 2 CaCl2, 1.2 MgSO4, 24 NaHCO3, 1.2 NaH2PO4, 2 Na Pyruvate and 10 D-Glucose. The perfusate was delivered at a constant pressure (45-50 mmHg). A transmural pseudo-ECG (ECG) was recorded using two Ag/AgCl half cells placed at ˜1 cm from the Epi (+) and Endo (−) surfaces along the same axis as the transmembrane action potential (AP) recordings. APs were simultaneously recorded from the immediate sub-Epi and M cell region (˜2-3 mm from the Endo surface) using floating glass microelectrodes. Pacing was applied to the Endo surface using bipolar silver electrodes insulated except at the tips (Basic Cycle Lengths [BCLs]: 500-2,000 ms). A detailed description of the arterially-perfused ventricular wedge preparation has been previously published.^5 ECG and AP signals were digitized and analyzed using Spike 2 for Windows (Cambridge Electronic Design, Cambridge, UK).\nWe used the Ito-agonist NS5806 (5-10 μM) alone or with the calcium-channel blocker verapamil (2.5 μM) to pharmacologically mimic the effects of the ion channel genetic defects underlying ERS and BrS. These provocative agents were added to the coronary perfusate in increasing concentrations until the characteristic ECG phenotypes were unmasked, including phase 2 reentry (P2R), closely coupled premature beats (CCPBs) and/or pVT/VF. AR-787 was added to the perfusate to test its ability to suppress or prevent arrhythmogenesis."}, "[2]": {"target": "T1, Nav1.5 (Homo sapiens, UniProt Q14524)", "T1 construct": "expressed in transfected cells; host or cells: HEK cells, transfected with Lipofectamine 2000", "T1 sequence (Q14524 whole entry)": "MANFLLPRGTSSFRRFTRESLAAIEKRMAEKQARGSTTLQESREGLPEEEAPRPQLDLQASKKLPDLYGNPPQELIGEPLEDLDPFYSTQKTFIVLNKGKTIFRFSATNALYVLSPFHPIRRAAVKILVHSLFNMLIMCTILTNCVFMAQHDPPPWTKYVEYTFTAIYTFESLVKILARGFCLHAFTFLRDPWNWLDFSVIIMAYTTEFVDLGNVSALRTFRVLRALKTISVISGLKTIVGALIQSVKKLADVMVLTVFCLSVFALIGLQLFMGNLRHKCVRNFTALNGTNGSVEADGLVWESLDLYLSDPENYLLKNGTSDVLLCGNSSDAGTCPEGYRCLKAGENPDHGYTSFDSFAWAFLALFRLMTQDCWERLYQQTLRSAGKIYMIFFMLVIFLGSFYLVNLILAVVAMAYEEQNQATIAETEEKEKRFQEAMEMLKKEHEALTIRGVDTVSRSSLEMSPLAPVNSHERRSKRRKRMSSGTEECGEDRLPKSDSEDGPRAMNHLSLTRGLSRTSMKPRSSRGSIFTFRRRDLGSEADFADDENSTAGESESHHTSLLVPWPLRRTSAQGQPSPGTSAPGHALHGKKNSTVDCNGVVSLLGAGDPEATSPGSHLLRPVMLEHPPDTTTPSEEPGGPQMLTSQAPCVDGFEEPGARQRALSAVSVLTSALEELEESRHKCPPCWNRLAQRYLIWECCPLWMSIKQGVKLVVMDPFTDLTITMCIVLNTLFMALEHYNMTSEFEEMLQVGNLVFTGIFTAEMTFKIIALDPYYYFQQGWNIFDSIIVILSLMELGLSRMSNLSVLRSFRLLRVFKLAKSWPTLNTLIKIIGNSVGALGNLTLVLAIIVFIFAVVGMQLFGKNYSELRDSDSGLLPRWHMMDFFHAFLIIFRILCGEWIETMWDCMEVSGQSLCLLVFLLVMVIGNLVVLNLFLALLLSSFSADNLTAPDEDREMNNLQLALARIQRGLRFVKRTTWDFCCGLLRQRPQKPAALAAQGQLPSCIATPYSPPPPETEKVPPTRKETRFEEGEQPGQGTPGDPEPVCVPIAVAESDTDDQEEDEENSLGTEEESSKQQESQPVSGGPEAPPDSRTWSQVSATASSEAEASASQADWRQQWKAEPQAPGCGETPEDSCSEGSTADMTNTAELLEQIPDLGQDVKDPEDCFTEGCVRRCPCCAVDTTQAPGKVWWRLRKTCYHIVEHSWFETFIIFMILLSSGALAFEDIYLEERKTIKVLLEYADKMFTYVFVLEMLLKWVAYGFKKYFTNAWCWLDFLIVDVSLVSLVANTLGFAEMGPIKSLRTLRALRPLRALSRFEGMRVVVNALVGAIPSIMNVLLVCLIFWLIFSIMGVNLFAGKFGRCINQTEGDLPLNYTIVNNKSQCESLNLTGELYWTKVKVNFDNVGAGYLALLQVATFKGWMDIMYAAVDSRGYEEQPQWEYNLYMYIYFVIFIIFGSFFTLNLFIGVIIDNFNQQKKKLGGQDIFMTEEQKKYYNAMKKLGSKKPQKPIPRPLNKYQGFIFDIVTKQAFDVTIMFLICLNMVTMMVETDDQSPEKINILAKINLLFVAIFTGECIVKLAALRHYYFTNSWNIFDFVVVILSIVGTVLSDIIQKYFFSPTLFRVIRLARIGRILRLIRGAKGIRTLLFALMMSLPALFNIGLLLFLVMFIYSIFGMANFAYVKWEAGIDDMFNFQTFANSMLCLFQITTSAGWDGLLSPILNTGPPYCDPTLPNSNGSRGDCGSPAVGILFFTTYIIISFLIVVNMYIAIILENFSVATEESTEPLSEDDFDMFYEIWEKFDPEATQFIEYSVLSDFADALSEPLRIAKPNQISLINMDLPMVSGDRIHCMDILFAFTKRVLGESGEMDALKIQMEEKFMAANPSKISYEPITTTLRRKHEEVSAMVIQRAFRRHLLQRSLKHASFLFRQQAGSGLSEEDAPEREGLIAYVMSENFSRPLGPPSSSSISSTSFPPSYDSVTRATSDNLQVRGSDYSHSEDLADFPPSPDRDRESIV", "T1 sequence (Q07699 19-218 partner)": "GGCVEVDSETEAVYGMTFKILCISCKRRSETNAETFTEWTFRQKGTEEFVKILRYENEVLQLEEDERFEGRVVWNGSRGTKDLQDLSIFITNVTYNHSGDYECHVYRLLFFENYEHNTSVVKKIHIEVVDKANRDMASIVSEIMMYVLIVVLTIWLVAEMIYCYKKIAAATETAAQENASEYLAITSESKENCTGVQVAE", "assay": "Automated patch clamp (Qube-384) of INa in HEK cells transfected with SCN5A+SCN1B", "format": "cell-based", "protocol": "HEK cells transiently transfected with wild-type SCN5A (α subunit—Nav1.5) together with SCN1B (β1 subunit) using Lipofectamine 2000 were used to assess the effect of AR-787 on the cardiac sodium channel current (INa). All cells were incubated at 37° C./5% CO2. All cell culture reagents were purchased from Thermo Fisher Scientific (Waltham, MA).\nThe effect of AR-787 on cardiac sodium channel current was evaluated in HEK cells co-transfected with SCN5A and SCN1B. INa was measured in the whole-cell configuration using a Qube-384 (Sophion A/S, Copenhagen, Denmark) automated voltage clamp system. A flipped Na^+ gradient was used where the extracellular solution contained (in mM): 125 choline chloride, 1 NaCl, 5 KCl, 2 CaCl2, 1 MgCl2, 10 HEPES/NaOH, pH 7.4 (adjusted with NaOH), and the intracellular solution contained (in mM): 115 NaF, 15 CsCl2, 5 CsF, 3 Na2ATP, 0.3 Na2GTP, 2 MgCl2, 0.1 CaCl2, 10 EGTA, and 10 HEPES/CsOH, pH 7.2 (adjusted with NaOH). The currents were low-pass-filtered at 5 kHz and recorded at 25 kHz sampling frequency. Series resistance compensation was applied at 100%, and leak subtraction was enabled. Experiments were performed at room temperature (27° C.). Appropriate filters for cell membrane resistance (typically >500 MΩ), series resistance (<10 MΩ), and Nav current magnitude (>500 pA at a test pulse from a resting holding potential of −120 mV) were routinely applied to exclude poor quality cells. Vehicle (0.5% DMSO) controls were run on each plate to enable correction for any compound independent decrease of currents over time.\nWe used a double voltage-pulse protocol designed specifically to assess whether the compound is a potentiator, inhibitor, or both. The protocol assesses these parameters at both rest and partially inactivated holding potentials. Currents were assessed by a test pulse of 0 mV from a holding potential at rest (−120 mV) before preconditioning channels to their appropriate mid-potential (V1/2) values (NaV1.5 V1/2=−90 mV) for 10 s. Peak current, time constant of inactivation (τ inactivation) and persistent current were measured.\nTime constants (τ) for fast inactivation onset were derived by fitting a single exponential function to the decay of current obtained from the depolarizing test pulse following a holding potential of −120 mV.\nwhere I is current amplitude, Iss is the plateau amplitude, α is the amplitude at time 0 for time constant τ, and t is time. Persistent sodium current was measured during a 10 ms test pulse from −120 mV to 0 mV. It was calculated as a percentage of peak sodium current at 5 ms."}, "[3]": {"details": "AR-787 10 μM following NS5806 5-10 μM, 3 LV wedges, BCL 800 msec"}, "[4]": {"details": "50 μM, holding potential −120 mV"}, "[5]": {"details": "50 μM, mid-voltage holding potential (NaV1.5 V1/2 = −90 mV)"}},
  "data": [
    {"smiles": "Cc1nc(-n2cccc2)sc1C(=O)N=c1[nH]c2ccccc2[nH]1", "note": "[AR-787, N-(1H-benzimidazol-2-yl)-4-methyl-2-pyrrol-1-yl-thiazole-5-carboxamide]", "values": [
      {"measurement": "effect on NS5806-induced J wave syndrome phenotype", "setting": "[1]; AR-787 10 μM after NS5806 5-10 μM", "value": "reversed these effects induced by NS5806"},
      {"measurement": "Epi (APD50)", "setting": "[1]; [3]", "value": "173.9 ± 7.8"},
      {"measurement": "Epi (APD90)", "setting": "[1]; [3]", "value": "209.0 ± 8.1"},
      {"measurement": "J wave amplitude", "setting": "[1]; [3]", "value": "8.7 ± 5.7"},
      {"measurement": "M (APD50)", "setting": "[1]; [3]", "value": "179.0 ± 11.4"},
      {"measurement": "M (APD90)", "setting": "[1]; [3]", "value": "235.0 ± 11.1"},
      {"measurement": "Ph1 mag (% Ph0)", "setting": "[1]; [3]", "value": "25.4 ± 4.9", "unit": "% Ph0"},
      {"measurement": "QT interval", "setting": "[1]; [3]", "value": "254.3 ± 10.0"},
      {"measurement": "T wave amplitude", "setting": "[1]; [3]", "value": "19.0 ± 1.8"},
      {"measurement": "manifestation of AP notch and ECG J wave", "setting": "[1]; AR-787 1, 10 and 50 μM after NS5806 10 μM, LV and RV wedges", "value": "concentration-dependent diminution in the manifestation of the AP notch and associated ECG J wave"},
      {"measurement": "QT interval", "setting": "[1]; AR-787 1, 10 or 50 μM, NS5806 5-10 μM, five wedges", "value": "unaffected"},
      {"measurement": "effect on NS5806-augmented Epi Ph1 magnitude and J wave amplitude", "setting": "[1]; AR-787 1, 10 or 50 μM, NS5806 5-10 μM, five wedges (4 LV and 1 RV)", "value": "readily reversed the effect of NS5806"},
      {"measurement": "ECG and arrhythmic manifestations (extrasystole, polymorphic VT) in ERS model", "setting": "[1]; LV wedge, NS5806 10 μM and verapamil 2.5 μM, AR-787 10 μM, 30 min", "value": "reduced Phase 1 magnitude, restored the AP dome and totally suppressed all arrhythmic activity"},
      {"measurement": "restoration of AP dome and suppression of Phase 2 reentry extrasystoles", "setting": "[1]; RV wedge, 40 min NS5806 10 μM, AR-787 50 μM but not 10 μM", "value": "effective in fully restoring the AP dome and in totally suppressing this arrhythmic activity"},
      {"measurement": "Normalized AUC", "setting": "[2]; 50 μM", "value": "1.03 ± 0.06"},
      {"measurement": "reduction of INa", "setting": "[2]; 50 μM, 0 mV test pulse from holding potential −120 mV", "value": "~32", "unit": "%"},
      {"measurement": "deceleration of fast inactivation kinetics", "setting": "[2]; 50 μM, holding potential −90 mV", "value": "this effect was abolished"},
      {"measurement": "Normalized Inhibition (−120 mV)", "setting": "[2]; [4]", "value": "0.32 ± 0.03"},
      {"measurement": "Normalized τinactivation (−120 mV)", "setting": "[2]; [4]", "value": "1.45 ± 0.07"},
      {"measurement": "deceleration of fast inactivation kinetics", "setting": "[2]; [4]", "value": "~1.5", "unit": "fold"},
      {"measurement": "Normalized Inhibition (−65 mV and −90 mV)", "setting": "[2]; [5]", "value": "0.78 ± 0.02"},
      {"measurement": "Normalized τinactivation (−65 mV and −90 mV)", "setting": "[2]; [5]", "value": "1.11 ± 0.10"},
      {"measurement": "Normalized Persistent Current (5 ms)", "setting": "[2]; 50 μM, percentage of peak sodium current at 5 ms, from −120 mV to 0 mV", "value": "10.44 ± 3.30"},
      {"measurement": "increase of late INa (persistent sodium current, percent of peak current)", "setting": "[2]; at 5 ms of a 10 ms depolarization to 0 mV from −120 mV", "value": "~10", "unit": "%"}
    ]}
  ]
}
